Measurements: US20140072617A1, “METHOD FOR PREVENTING OR SLOWING DOWN THE APPEARANCE OF THE EFFECTS OF SKIN AGEING USING A TOCOPHERYL PHOSPHATE IN LIPOSOMES” (LVMH RECHERCHE, priority 2007, published 2014)

Assays:
[1] = test system: normal human keratinocytes (NHKs); assay: Apoptosis of normal human keratinocytes after H2O2 oxidative stress (JC-1/TOTO-3 cytometry); type: cell-based; conditions: for % NHKs undergoing apoptosis: pretreated 24 h at 10 μg/ml, then 1 mM H2O2 for 3 h, nontreated H2O2 control 54.82, nontreated control 5.48
Method: The cells undergoing apoptosis (programmed cell death) are examined on normal human keratinocytes (NHKs) in culture.
The cells are pretreated or not pretreated (controls) for 24 h with the vitamin E derivatives in solution at 10 μg/ml.
The cells are subsequently subjected to oxidative stress (1 mM H2O2 for 3 h).
The proportion of cells undergoing apoptosis is determined by cytometry using the fluorescent probes JC-1 (measurement of mitochondrial transmembrane potential) and TOTO-3 (measurement of plasma membrane permeability).
The apoptotic cells are JC-1-negative (corresponding to a drop in the mitochondrial transmembrane potential) and TOTO-3-negative (corresponding to an absence of alteration of the plasma membrane).
This method has been published (Zullani et al. Cytometry part A, 2003, 54A: 100-108).

epidermal stem cells = assay: Clonogenicity test on keratinocyte colonies derived from epidermal stem cells after oxidative stress; type: cell-based, human; conditions: 1 μg/ml for 24 h, then hydrogen peroxide 15 minutes, 7 days of culture; versus stressed controls without treatment
Description: In order to study these epidermal stem cells in the basal cell layer of the epidermis, the test carried out, known as clonogenecity test, is based on the ability that the stem cells have of adhering, in vitro, to a culture support and of dividing so as to generate a large population of daughter cells grouped together in the form of colonies (Barrandon Y., Green H., Three clonal types of keratinocyte with different capacities for multiplication, […], 2302-2306 (1987), and Barrandon Y., Biologie des cellules souches épidermiques [Epidermal Stem Cell Biology], Ann. Dermatol. Venereol. Suppl. 2: 285-286, (1998)).
Analysis of the number and of the size of the colonies after culture makes it possible to characterize the epidermal stem cells.
The first step of isolating these cells consists in preparing a suspension of epidermal cells (Germain L et al., Improvement of human keratinocyte isolation and culture using thermolysin, Burns 19, 99-104 (1993)).
These cells are subsequently seeded onto feeder cells (3T3 fibroblasts), the mitotic activity of which is blocked with mitomycin. […]
After 7 days of culture, the cell colonies formed from each initial keratinocyte are coloured and counted by image analysis according to their size so as to evaluate the amount of stem cells of the initial culture. […]

Row | Compound | % NHKs undergoing apoptosis [1] [%] | protective effect against oxidative stress for the keratinocytes (in words) ([1]; 10 μg/ml 24 h, 1 mM H2O2 3 h, compared with control, vitamin E and the other derivatives) | number of large colonies (>4 mm^2) compared with the controls (epidermal stem cells)
1 | tocotrienol | 42.85 |  | 
2 | alpha-tocopheryl phosphate | 32.79 | significantly greater than that observed for the control, and also than that observed for vitamin E or the other derivatives | 
3 | Cc1c(C)c2c(c(C)c1OC(=O)c1cc(O)ccc1O)CCC(C)(CCCC(C)CCCC(C)CCCC(C)C)O2 (stereo not drawn) [tocopheryl gentisate] | 60.67 |  | 
4 | Cc1c(C)c2c(c(C)c1OP(=O)([O-])[O-])CCC(C)(CCCC(C)CCCC(C)CCCC(C)C)O2.[Na+].[Na+] (stereo not drawn) [sodium alpha-tocopheryl phosphate] |  |  | +104%
5 | Cc1c(C)c2c(c(C)c1O)CC[C@@](C)(CCC[C@H](C)CCC[C@H](C)CCCC(C)C)O2 [alpha-tocopherol] | 58.82 |  | 
